According to US12404268B2, “2-heteroaryl aminoquinazolinone derivative” (Sumitomo Pharma Co., Ltd., priority 2020, dated 2025):

Test system: neurons induced to differentiate from SCN1A gene deficient human iPS cells
Experiment: Test for measuring hyperexcitation suppression activity (spontaneous calcium oscillation frequency)
Type: cell-based
Details: Neuron; for IC50: SCN1A gene deficient human iPS cell-derived neurons, FLIPR Calcium 6, FDSS7000EX, read-out: IC50 (50% inhibitory concentration, frequency of spontaneous calcium oscillation); for inhibition at 100 µM / inhibition at 10 µM / inhibition at 1 µM / inhibition at 0.1 µM: Homo sapiens, read-out: inhibition rate
Text: Test for Measuring Hyperexcitation Suppression Activity Using Neurons Induced to Differentiate from SCN1A Gene Deficient Human iPS Cells
(1) Induction of Differentiation from Human iPS cells to Neurons
Half of the culture solution was exchanged once every 3 to 4 days.
(2) Fluorescent Calcium Probe Treatment, Addition of Compound, and Evaluation of Intracellular Calcium Concentration
Half of the culture solution was removed on day 60 from induction of differentiation or thereafter. A medium for measurement comprising a fluorescent calcium probe (Molecular Device, product name: FLIPR Calcium 6 Assay Bulk Kit, cat #R8191) was added at an amount equal to the remaining medium. The culture was left standing for 30 minutes and subjected to measurement.
The test compounds were serially diluted with a dimethyl sulfoxide (DMSO) solution so that the final concentration would be 0.1 to 100 μM to prepare a concentrate with a concentration that is 6-fold of the final concentration.
The intensity of fluorescence of a calcium probe was measured over time with FDSS7000EX (Hamamatsu Photonics) to evaluate the change in intracellular calcium concentrations. First, the intensity of fluorescence was measured for 2 minutes. The compound solutions were then added using FDSS7000EX for an additional 8 minute measurement of fluorescence intensity. The frequency of spontaneous calcium oscillation was quantified as an indicator of nerve excitation. With the frequency for 2 minutes before the addition of the compound solutions as 100%, the ratio of frequency for the last 2 minutes after addition of the compound solutions was calculated.

Compound: Cc1cccc2nc(Nc3cccnc3)n(-c3ccccc3)c(=O)c12 [Example 223]
- IC50: > 100 µM

Compound: O=c1c2c(F)cccc2nc(Nc2cncc(F)c2)n1-c1ccccc1 [Example 117]
- inhibition at 100 µM: 71%

Compound: O=c1c2cc(F)ccc2nc(Nc2cccnc2)n1C1CC1 [Example 165]
- inhibition at 10 µM: 100%

Compound: CC(C)c1ccc(Nc2nc3ccc(Cl)cc3c(=O)n2-c2ccccc2)cn1 [Example 44]
- inhibition at 10 µM: 81%

Compound: C[C@]1(N)CC[C@H](n2c(Nc3cccnc3)nc3ccccc3c2=O)CC1 [Example 73]
- inhibition at 1 µM: 86%

Compound: CC1(n2c(Nc3cccnc3)nc3ccc(F)cc3c2=O)CC1 [Example 196]
- IC50: > 10 µM

Compound: Cc1ncccc1Nc1nc2ccc(Cl)cc2c(=O)n1-c1ccccc1 [Example 24]
- inhibition at 10 µM: 54%

Compound: Cc1ccncc1Nc1nc2ccc(F)cc2c(=O)n1-c1ccccc1 [Example 47]
- inhibition at 10 µM: 89%

Compound: CN1CC[C@H](n2c(Nc3cccnc3)nc3ccc(F)cc3c2=O)C1 [Example 82]
- inhibition at 10 µM: 17%

Compound: C[C@@H]1CN(C)CC[C@H]1n1c(Nc2cccnc2)nc2ccc(F)cc2c1=O [Example 166]
- inhibition at 10 µM: 36%

Compound: O=c1c2cc(Cl)ccc2nc(Nc2ccc(C(F)(F)F)cn2)n1-c1ccccc1 [Example 53]
- inhibition at 10 µM: 79%

Compound: CO[C@H]1CC[C@H](n2c(Nc3cccnc3)nc3ccc(F)cc3c2=O)CC1 [Example 200]
- IC50: > 10 µM

Compound: Cc1ccccc1-n1c(Nc2cccnc2)nc2cccc(F)c2c1=O [Example 120]
- inhibition at 1 µM: 69%

Compound: Cc1ccccc1-n1c(Nc2cccnc2)nc2cc(F)ccc2c1=O [Example 121]
- inhibition at 1 µM: 28%

Compound: Cc1ccc(F)cc1-n1c(Nc2cccnc2)nc2ccc(C#N)cc2c1=O [Example 104, 3-(5-fluoro-2-methylphenyl)-4-oxo-2-(pyridin-3-ylamino)-3,4-dihydroquinazoline-6-carbonitrile]
- inhibition at 0.1 µM: 29%

Compound: CN1[C@@H]2CC[C@H]1C[C@H](n1c(Nc3cccnc3)nc3ccccc3c1=O)C2 [Example 76]
- inhibition at 1 µM: 35%

Compound: Cc1ccc2nc(Nc3cccnc3)n(-c3ccccc3)c(=O)c2n1 [Example 198]
- IC50: > 10 µM

Compound: O=c1c2ccccc2nc(Nc2ccc3oncc3c2)n1-c1ccccc1 [Example 148]
- inhibition at 100 µM: 10%

Compound: O=c1c2cc(F)ccc2nc(Nc2cccnc2)n1C1(c2ccccc2)COC1 [Example 168]
- inhibition at 1 µM: 58%

Compound: COc1cc2nc(Nc3cccc4ncccc34)n(C)c(=O)c2cc1OC [Example 220]
- IC50: > 10 µM

Compound: O=c1c2cc(F)ccc2nc(Nc2cccnc2)n1[C@H]1CC[C@H](O)CC1 [Example 180]
- inhibition at 1 µM: 35%

Compound: CN1CC[C@@H](n2c(Nc3cccnc3)nc3ccc(F)cc3c2=O)C1 [Example 97]
- inhibition at 100 µM: 100%

Compound: O=c1c2cc(Cl)ccc2nc(Nc2nncs2)n1-c1ccccc1 [Example 229]
- inhibition at 10 µM: 5%

Compound: COc1ccc(-n2c(Nc3cccnc3)nc3ccc(F)cc3c2=O)cc1 [Example 143]
- inhibition at 1 µM: 45%

Compound: COCCn1c(Nc2cccnc2)nc2ccc(F)cc2c1=O [Example 203]
- IC50: > 10 µM

Compound: CN(C)c1cncc(-n2c(Nc3cccnc3)nc3ccc(F)cc3c2=O)c1 [Example 215]
- IC50: > 10 µM

Compound: COc1ccc(Nc2nc3ccc(Cl)cc3c(=O)n2-c2ccccc2)cn1 [Example 22]
- inhibition at 10 µM: 70%

Compound: O=c1c2cc(Cl)ccc2nc(Nc2ncns2)n1-c1ccccc1 [Example 230]
- inhibition at 10 µM: 2%

Compound: Cc1ccnc(Nc2nc3ccc(F)cc3c(=O)n2-c2ccccc2)c1 [Example 125]
- inhibition at 1 µM: 29%

Compound: Cn1ccc(Nc2nc3ccc(F)cc3c(=O)n2-c2ccccc2)c1 [Example 182]
- inhibition at 10 µM: 72%

Compound: O=c1c2cc(F)ccc2nc(Nc2cccnc2)n1C1CCN(C2CC2)CC1 [Example 170]
- inhibition at 100 µM: 100%

Compound: O=c1c2cc(Cl)ccc2nc(Nc2cccnc2)n1-c1ccccc1F [Example 51, 6-chloro-3-(2-fluorophenyl)-2-(pyridin-3-ylamino)quinazolin-4(3H)-one]
- inhibition at 1 µM: 100%

Compound: O=c1c2ccccc2nc(Nc2cccnc2)n1C1CCC(F)(F)CC1 [Example 58]
- inhibition at 10 µM: 100%

Compound: O=c1c2cc(F)ccc2nc(Nc2ccnnc2)n1-c1ccccc1 [Example 19]
- IC50: 2.2 µM

Compound: O=c1c2cc(Cl)ccc2nc(Nc2ccnnc2)n1-c1ccccc1 [Example 34]
- inhibition at 10 µM: 57%

Compound: Cc1ccncc1Nc1nc2ccc(Cl)cc2c(=O)n1-c1ccccc1 [Example 147]
- IC50: 2.7 µM

Compound: CCc1ccc(Nc2nc3ccc(Cl)cc3c(=O)n2-c2ccccc2)cn1 [Example 49]
- inhibition at 10 µM: 34%

Compound: O=c1c2cc(F)ccc2nc(Nc2cccnc2)n1C1(c2ccccn2)CC1 [Example 206]
- IC50: > 100 µM

Compound: COc1cncc(Nc2nc3ccc(Cl)cc3c(=O)n2-c2ccccc2)c1 [Example 218]
- IC50: > 10 µM

Compound: CN1[C@@H]2CC[C@H]1C[C@@H](n1c(Nc3cccnc3)nc3ccc(F)cc3c1=O)C2 [Example 80]
- inhibition at 10 µM: 49%

Compound: COc1ccccc1-n1c(Nc2cccnc2)nc2ccc(F)cc2c1=O [Example 142, 6-fluoro-3-(2-methoxyphenyl)-2-(pyridin-3-ylamino)quinazolin-4(3H)-one]
- inhibition at 1 µM: 86%

Compound: O=c1c2cccnc2nc(Nc2cccnc2)n1-c1ccccc1 [Example 152]
- inhibition at 10 µM: 15%

Compound: N#Cc1ccc2nc(Nc3ccccn3)n(-c3ccccc3)c(=O)c2c1 [Example 88]
- inhibition at 10 µM: 95%

Compound: Cn1cnc(Nc2nc3ccccc3c(=O)n2-c2ccccc2)c1 [Example 231]
- IC50: > 10 µM

Compound: O=c1c2cc(F)cnc2nc(Nc2cccnc2)n1-c1ccccc1 [Example 162]
- inhibition at 10 µM: 39%

Compound: Cc1ccc(Nc2nc3ccc(F)cc3c(=O)n2-c2ccccc2)nc1 [Example 137, 6-fluoro-2-((5-methylpyridin-2-yl)amino)-3-phenylquinazolin-4(3H)-one]
- inhibition at 1 µM: 85%

Compound: O=c1c2cc(F)ccc2nc(Nc2cnsc2)n1-c1ccccc1 [Example 178]
- inhibition at 10 µM: 76%

Compound: O=c1c2cc(Cl)ccc2nc(Nc2cn[nH]c2)n1-c1ccccc1 [Example 217]
- IC50: > 10 µM

Compound: O=c1c2ccccc2nc(Nc2cccnc2)n1C1CCCCC1 [Example 57]
- inhibition at 1 µM: 21%

Compound: O=c1c2ccccc2nc(Nc2ccc3ocnc3c2)n1-c1ccccc1 [Example 1, 2-(benzo[d]oxazol-5-ylamino)-3-phenylquinazolin-4(3H)-one]
- inhibition at 1 µM: 31%

Compound: COc1cc(Nc2nc3ccc(F)cc3c(=O)n2-c2ccccc2)ccn1 [Example 227]
- IC50: > 100 µM

Compound: CN1CCC[C@@H](n2c(Nc3cccnc3)nc3ccccc3c2=O)C1 [Example 75]
- inhibition at 10 µM: 100%

Compound: CN(C)CCn1c(Nc2cccnc2)nc2ccc(F)cc2c1=O [Example 207]
- IC50: > 10 µM

Compound: Cc1cccc2c(=O)n(-c3ccccc3)c(Nc3cccnc3)nc12 [Example 224]
- IC50: > 100 µM

Compound: Cc1cc2c(=O)n(-c3ccccc3)c(Nc3cccnc3)nc2cn1 [Example 194]
- IC50: > 10 µM

Compound: CN(C)c1ccc2nc(Nc3cccnc3)n(-c3ccccc3)c(=O)c2c1 [Example 212]
- IC50: > 10 µM

Compound: O=c1c2ccc(F)cc2nc(Nc2cccnc2)n1-c1ccccc1 [Example 222]
- IC50: > 100 µM

Compound: O=c1c2cc(Cl)ccc2nc(Nc2ccc3nncn3c2)n1-c1ccccc1 [Example 16]
- inhibition at 10 µM: 42%

Compound: CN1CC(c2ccccc2)(n2c(Nc3cccnc3)nc3ccc(F)cc3c2=O)C1 [Example 176]
- inhibition at 10 µM: 88%

Compound: COc1ccncc1Nc1nc2ccc(Cl)cc2c(=O)n1-c1ccccc1 [Example 23]
- inhibition at 1 µM: 61%

Compound: N#Cc1cncc(Nc2nc3ccc(Cl)cc3c(=O)n2-c2ccccc2)c1 [Example 41, 5-((6-chloro-4-oxo-3-phenyl-3,4-dihydroquinazolin-2-yl)amino)nicotinonitrile]
- inhibition at 1 µM: 95%

Compound: O=c1c2cc(F)ccc2nc(Nc2cccnc2)n1Cc1ccccn1 [Example 157]
- inhibition at 10 µM: 90%

Compound: O=c1c2ccncc2nc(Nc2cccnc2)n1-c1ccccc1 [Example 192]
- IC50: > 10 µM

Compound: O=c1c2cc(F)ccc2nc(Nc2cccnc2)n1-c1cccc(F)c1 [Example 123]
- inhibition at 1 µM: 56%

Compound: O=c1c2cc(F)ccc2nc(Nc2cccnc2)n1C1COC1 [Example 204]
- IC50: > 10 µM

Compound: Cc1ccc(-n2c(Nc3cccnc3)nc3ccc(F)cc3c2=O)cc1 [Example 105, 6-fluoro-2-(pyridin-3-ylamino)-3-(p-tolyl)quinazolin-4(3H)-one]
- inhibition at 1 µM: 100%

Compound: O=c1c2cc(F)ccc2nc(Nc2cccnc2)n1-c1cncc(F)c1 [Example 184]
- inhibition at 100 µM: 54%

Compound: O=c1c2cc(F)ccc2nc(Nc2cccnc2)n1-c1ccccc1Cl [Example 145, 3-(2-chlorophenyl)-6-fluoro-2-(pyridin-3-ylamino)quinazolin-4(3H)-one]
- inhibition at 1 µM: 100%

Compound: CO[C@H]1CN(C)CC[C@H]1n1c(Nc2cccnc2)nc2ccc(F)cc2c1=O [Example 183]
- inhibition at 100 µM: 13%

Compound: Cc1ccccc1-n1c(Nc2cncc(F)c2)nc2ccc(F)cc2c1=O [Example 4, 6-fluoro-2-((5-fluoropyridin-3-yl)amino)-3-(o-tolyl)quinazolin-4(3H)-one]
- inhibition at 0.1 µM: 88%

Compound: O=c1c2cc(F)ccc2nc(Nc2ccncc2F)n1-c1ccccc1 [Example 140]
- inhibition at 1 µM: 46%
